Results taken from US10626100B2, “Selective HDAC6 inhibitors” (The Trustees of Columbia University in the City of New York, priority 2013, dated 2020).
“Also recorded” adds a separate entry of the source.

Tests used:
[1] = molecular target: HDAC1 (Homo sapiens, UniProt Q13547); test: Inhibition of recombinant HDAC1; assay type: biochemical; details: read-out: IC50 (nM) HCAC1
[2] = molecular target: T1, HDAC6 (Homo sapiens, UniProt Q9UBN7); test: Inhibition of recombinant HDAC6; details: for Ratio: HDAC1/HDAC6: ratio of IC50 HDAC1 to IC50 HDAC6
T1 sequence (Q9UBN7 1-1215): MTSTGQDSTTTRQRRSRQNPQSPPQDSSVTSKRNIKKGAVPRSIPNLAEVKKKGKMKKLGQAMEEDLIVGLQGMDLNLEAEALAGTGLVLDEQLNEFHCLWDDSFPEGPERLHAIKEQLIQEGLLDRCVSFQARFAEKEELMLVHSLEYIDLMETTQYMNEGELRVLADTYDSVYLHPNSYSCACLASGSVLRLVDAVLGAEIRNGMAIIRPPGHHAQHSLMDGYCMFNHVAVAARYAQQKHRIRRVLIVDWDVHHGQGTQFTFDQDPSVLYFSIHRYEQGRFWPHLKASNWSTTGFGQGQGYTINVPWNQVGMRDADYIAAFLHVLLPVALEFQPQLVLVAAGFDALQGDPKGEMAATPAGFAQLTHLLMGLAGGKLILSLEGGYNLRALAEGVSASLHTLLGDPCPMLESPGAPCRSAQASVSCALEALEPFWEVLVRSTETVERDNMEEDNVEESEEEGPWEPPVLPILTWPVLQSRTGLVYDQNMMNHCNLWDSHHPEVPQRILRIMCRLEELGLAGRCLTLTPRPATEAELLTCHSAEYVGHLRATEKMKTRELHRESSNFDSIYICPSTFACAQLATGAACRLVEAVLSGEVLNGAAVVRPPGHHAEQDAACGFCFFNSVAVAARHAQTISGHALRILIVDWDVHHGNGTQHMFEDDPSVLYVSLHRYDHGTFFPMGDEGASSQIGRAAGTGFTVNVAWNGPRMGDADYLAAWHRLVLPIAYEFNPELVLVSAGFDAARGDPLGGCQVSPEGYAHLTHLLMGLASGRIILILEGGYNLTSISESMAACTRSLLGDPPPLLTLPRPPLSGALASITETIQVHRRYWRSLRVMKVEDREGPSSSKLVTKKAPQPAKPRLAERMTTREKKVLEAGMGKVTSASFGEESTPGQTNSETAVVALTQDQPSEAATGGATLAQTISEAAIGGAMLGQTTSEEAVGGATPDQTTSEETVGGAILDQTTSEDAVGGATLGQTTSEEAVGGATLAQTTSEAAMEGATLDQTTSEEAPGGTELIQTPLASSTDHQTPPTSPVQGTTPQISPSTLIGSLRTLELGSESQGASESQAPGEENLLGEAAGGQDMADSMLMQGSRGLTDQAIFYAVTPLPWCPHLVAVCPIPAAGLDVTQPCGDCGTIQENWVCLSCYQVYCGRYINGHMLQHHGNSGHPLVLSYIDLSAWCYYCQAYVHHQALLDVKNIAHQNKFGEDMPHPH

[3] = tested on: acetylated alpha-tubulin and acetylated histone H3 in LNCaP (human prostate cancer cells); test: Accumulation of acetylated proteins in LNCaP cells (western blot); assay type: cell-based; details: LNCaP cells, FIG. 2
Description: FIG. 2. Blot showing accumulation of acetylated alpha-tubulin and acetylated histone H3 in LNCaP (human prostate cancer cells) cultured with compounds 8 or 11. GADPH used as loading control.
FIG. 5. Western blots of acetylated alpha-tubulin (Acet-Tub) and acetylated histone H3 (Acet-H3) in HFS (normal) and LNCaP (transformed) cells treated with compound 8 at 8, 16, 32, and 64 μM for 24 h. Western blots of GAPDH and total histone H3 (Total-H3) are loading controls.
(§1) Recombinant HDAC1 and HDAC6 are used to evaluate the selective inhibitory potency of each compound. Cell based assays: Normal cells (Human Foreskin Fibroblast cells), LNCaP (human prostate cancer cells), MCF-7 (human breast cancer cells, A549 (human adenocarcinoma of lung cells) and ARP-1 (human multiple myeloma cells) are used in these assays. Cells were cultured for up to 72 hr without and with the potential HDAC6-selective inhibitor. SAHA was used as a control. Cell number and cell viability were determined by enumeration. Proteins were extracted from cells and assayed for accumulation of acetylated tubulin and acetylated histones. All methods are described in Namdar et al., PNAS, 2010, 107:20003-8. In vivo animal studies: Potential HDAC6 inhibitor compounds are further assayed by administration to mice for up to 5 days with daily injections. Animals are sacrificed and tissues are analyzed for accumulation of acetylated tubulin and acetylated histones.

[4] = tested on: LNCaP (human prostate adenocarcinoma) cells; test: Cell growth and viability of LNCaP cells; assay type: cell-based; details: SAHA control
Description: FIG. 3. Cell growth of HFS (normal) and LNCaP (transformed) cells treated with compound 8 over 72 h.
FIG. 4. Cell viability of HFS (normal) and LNCaP (transformed) cells treated with compound 8 over 72 h.
as §1
The effect of compound 8 on the cell growth and viability of normal (HFS, human foreskin fibroblast) and transformed (LNCaP, human prostate adenocarcinoma) cells cultured with 8, 16, 32 or 64 μM HPB for up to 72 h was evaluated.

[5] = tested on: acetylated alpha-tubulin and acetylated histone H3 in LNCaP (human prostate cancer cells); details: SAHA; literature cited, cells not given; cited from earlier work
[6] = tested on: acetylated alpha-tubulin and histones in CWR22 tumors and spleen; test: Acetylated lysine patterns in CWR22 tumors and spleen; assay type: in vivo, nude mice
Excerpt: Tumors and spleen are removed from the animals, and histones and proteins are extracted for the detection of acetylated lysine patterns.

[7] = tested on: androgen-dependent CWR22 human prostate cancer xenograft; test: CWR22 human prostate cancer xenograft in nude mice; assay type: in vivo; details: 21 days; daily 300 mg/kg compound 8 or weekly 3 mg/kg etoposide alone

Sequence of HDAC1 (Q13547 whole entry): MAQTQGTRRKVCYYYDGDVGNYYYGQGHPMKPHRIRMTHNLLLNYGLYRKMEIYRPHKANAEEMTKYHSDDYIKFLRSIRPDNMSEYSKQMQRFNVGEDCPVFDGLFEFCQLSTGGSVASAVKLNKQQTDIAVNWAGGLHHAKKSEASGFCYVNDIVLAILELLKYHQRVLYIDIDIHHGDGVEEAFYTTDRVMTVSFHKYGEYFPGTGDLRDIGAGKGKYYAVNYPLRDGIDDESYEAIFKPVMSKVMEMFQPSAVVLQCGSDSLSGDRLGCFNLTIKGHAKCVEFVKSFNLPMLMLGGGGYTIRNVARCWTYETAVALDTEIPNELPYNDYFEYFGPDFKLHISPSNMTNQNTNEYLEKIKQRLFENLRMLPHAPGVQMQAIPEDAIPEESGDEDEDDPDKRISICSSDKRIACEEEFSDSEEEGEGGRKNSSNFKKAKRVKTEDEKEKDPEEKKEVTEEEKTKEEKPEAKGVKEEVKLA

SMILES: O=C(NO)c1ccc(CN(CCO)C(=O)c2ccccc2)cc1 [Compound 11, N-hydroxy-4-((N-(2-hydroxyethyl)-2-benzamido)methyl)benzamide]
- IC50 [1]: 270 nM
- IC50 [2]: 11 nM
- Ratio: HDAC1/HDAC6 [2]: 24.54
- accumulation of acetylated histones (H3) [3]: did not cause accumulation of actylated histones; also recorded: without induction of H3 acetylation
- accumulation of acetylated α-tubulin [3]: caused the accumulation of acetylated α-tubulin; also recorded: significant levels of tubulin acylation were present

SMILES: O=C(CCCCCCC(=O)Nc1ccccc1)NO [SAHA, suberoylanilide hydroxamic acid, reference compound]
- Ratio: HDAC1/HDAC6 [2]: 3.09
- death of LNCaP cells [4]: kills LNCaP cells
- accumulation of acetylated alpha-tubulin [5]: induced the accumulation of acetylated alpha-tubulin and histone H3
- accumulation of acetylated histone H3 [5]: induced the accumulation of acetylated alpha-tubulin and histone H3

SMILES: O=C(CCCCCCC(=O)Nc1ccc([C@H]2O[C@@H](CSc3nc(-c4ccccc4)c(-c4ccccc4)o3)C[C@@H](c3ccc(CO)cc3)O2)cc1)NO [Tubacin, reference compound]
- IC50 [1]: 193 nM

SMILES: COc1cc([C@@H]2c3cc4c(cc3[C@@H](O[C@@H]3O[C@@H]5CO[C@@H](C)O[C@H]5[C@H](O)[C@H]3O)[C@H]3COC(=O)[C@H]23)OCO4)cc(OC)c1O [etoposide, reference compound]
- accumulation of histones in tumors, single agent ([6]; mice injected with compound 8 alone or etoposide): Increased levels of accumulation of histones
- accumulation of acetylated alpha-tubulin in CWR22 tumors and spleen, single agent ([6]; mice treated with compound 8 or etoposide): increased accumulation of acetylated alpha-tubulin
- growth of established CWR22 tumors, single agent [7]: no significant suppression of the growth
- weight loss, single agent [7]: no weight loss
